# Literature values, collected in patent US20110038802A1, “METHOD OF DETERMINING ALANINE TRANSAMINASE (ALT) ACTIVITY BY 13C-MR DETECTION USING HYPERPOLARISED 13C-PYRUVATE” (priority 2008, published 2011).
# Conditions: human full blood, 37° C.
compound,measurement,value
"CC(=O)C(=O)O [^13C1-pyruvate, sodium ^13C1-pyruvate]",T1 relaxation,about 42 s
